Where two headings read alike, the source gives them in different places. Blank lines part the entries; values can stand above or below the molecule they belong to.
Columns and labels:
aldose reductase [1] = target: T1, aldose reductase (Bos taurus, UniProt P16116); assay: in vitro inhibition of aldose reductase (enzyme from bovine lens, modified Hayman and Kinoshita procedure); format: biochemical; conditions: read-out: % inhibition in vitro
T1 construct: preparation of the enzyme from bovine lens; from tissue; host or cells: bovine lens
Source text: In the present case the procedure of Hayman and Kinoshita was modified in that the final chromatography step was omitted in the preparation of the enzyme from bovine lens.

aldose reductase [2] = target: T2, aldose reductase (Rattus norvegicus, UniProt P07943); assay: lowering of dulcitol accumulation in vivo in lens, sciatic nerve and diaphragm of galactosemic rats; set-up: species or system rat (Sprague-Dawley); conditions: for ED50: po, 96 h
T2 construct: diminish the accumulation of dulcitol in the lenses, sciatic nerves and diaphragm of rats fed galactose; from tissue; host or cells: lens, sciatic nerve and diaphragm of living male Sprague-Dawley rats
Source text: Such experiments are exemplified hereinbelow after the listing of the following general comments pertaining to these experiments:
(a) Four or more groups of six male rats, 50-70 g, Sprague-Dawley strain, were used. The first group, the control group, was fed a mixture of laboratory chow (rodent Laboratory Chow, Purina) and glucose at 20% (w/w %) concentration. The untreated galactosemic group was fed a similar diet in which galactose is substituted for glucose. The third group was fed a diet prepared by mixing a given amount of the test compound with the galactose containing diet. The concentration of galactose in the diet of the treated groups was the same as that for the untreated galactosemic group.
(b) After four days, the animals were killed by decapitation. The eyeballs were removed and punctured with a razor blade; the freed lenses were rolled gently on filter paper and weighed. The sciatic nerves were dissected as completely as possible and weighed. Both tissues when frozen can be kept up to two weeks before being analyzed for dulcitol.
Only two minor reagent changes were made: (a) The rinsing mixture was an aqueous 5% (w/v) trichloroacetic acid solution and (b) the stock solution was prepared by dissolving 25 mg of dulcitol in 100 ml of an aqueous trichloroacetic acid solution. [N.B.: For each experiment the average value found in the tissue from rats fed the glucose diet was subtracted from the individual values found in the corresponding tissue in galactose-fed rats to obtain the amount of polyol accumulated.]
The figures under L, N and D represent the percentage decrease of dulcitol accumulation in the tissues of the lens, sciatic nerve and diaphragm, respectively, for treated rats as compared to untreated rats.

[3] = diaphragm, 24 mg/kg/day in diet
[4] = rat, diaphragm, read-out: ED50, lowering dulcitol accumulation in vivo, D
[5] = rat, sciatic nerve, read-out: ED50, lowering dulcitol accumulation in vivo, N
[6] = diaphragm, 23 mg/kg/day in diet

SMILES: O=C1CN(S(=O)(=O)c2cccc3c(Cl)cccc23)C(=O)N1 [Example 16, 1-[(5-chloro-1-naphthalenyl)sulfonyl]-2,4-imidazolidinedione]
inhibition at 10 µM (aldose reductase [1]; 10^-5): 85% | inhibition at 0.1 µM (aldose reductase [1]; 10^-7): 36% | inhibition at 1 µM (aldose reductase [1]): 79% | % lowering dulcitol accumulation in vivo, D (aldose reductase [2]; diaphragm, 25 mg/kg/day in diet): 82% | % lowering dulcitol accumulation in vivo, L (aldose reductase [2]; lens, 25 mg/kg/day in diet): 44%

SMILES: O=C1CN(S(=O)(=O)c2cccc3c(Br)cccc23)C(=S)N1 [Example 1, 1-[(5-Bromo-1-naphthalenyl)sulfonyl]-2-thioxo-4-imidazolidinone]
inhibition at 10 µM (aldose reductase [1]; 10^-5): 67% | inhibition at 1 µM (aldose reductase [1]; 10^-6): 17% | % lowering dulcitol accumulation in vivo, D (aldose reductase [2]; [3]): 61% | % lowering dulcitol accumulation in vivo, D (aldose reductase [2]; diaphragm, 48 mg/kg/day in diet, p < 0.01): 64% | % lowering dulcitol accumulation in vivo, D (aldose reductase [2]; diaphragm, 109 mg/kg/day in diet): 86% | % lowering dulcitol accumulation in vivo, L (aldose reductase [2]; lens, 24 mg/kg/day in diet): 24% | % lowering dulcitol accumulation in vivo, L (aldose reductase [2]; lens, 48 mg/kg/day in diet, p < 0.01): 40% | % lowering dulcitol accumulation in vivo, L (aldose reductase [2]; lens, 109 mg/kg/day in diet): 49% | ED50 (aldose reductase [2]; [4]): 18 mg/kg | ED50 (aldose reductase [2]; rat, lens, read-out: ED50, lowering dulcitol accumulation in vivo, L): 99 mg/kg | ED50 (aldose reductase [2]; [5]): 22 mg/kg

SMILES: O=C1CN(S(=O)(=O)c2ccc(Br)c3ccccc23)C(=S)N1 [Example 3, 1-[(4-bromo-1-naphthalenyl)sulfonyl]-2-thioxo-4-imidazolidinone]
inhibition at 10 µM (aldose reductase [1]; 10^-5): 53% | inhibition at 1 µM (aldose reductase [1]; 10^-6): 15%

SMILES: CN(C)c1cccc2c(S(=O)(=O)N3CC(=O)NC3=S)cccc12 [Example 7, 1-[[5-(dimethylamino)-1-naphthalenyl]sulfonyl]-2-thioxo-4-imidazolidinone]
inhibition at 10 µM (aldose reductase [1]; 10^-5): 58% | inhibition at 1 µM (aldose reductase [1]; 10^-6): 12%

SMILES: O=C1CN(S(=O)(=O)c2cccc3ccc(Br)cc23)C(=O)N1 [Example 14, 1-[(7-bromo-1-naphthalenyl)sulfonyl]-2,4-imidazolidinedione]
inhibition at 0.1 µM (aldose reductase [1]; 10^-7): 36% | inhibition at 1 µM (aldose reductase [1]): 79% | inhibition at 10 µM (aldose reductase [1]): 93% | % lowering dulcitol accumulation in vivo, D (aldose reductase [2]; [6]): 50% | % lowering dulcitol accumulation in vivo, L (aldose reductase [2]; lens, 23 mg/kg/day in diet): 0%

SMILES: O=C1CN(S(=O)(=O)c2cccc3ccc(Br)cc23)C(=S)N1 [Example 13, 1-[(7-bromo-1-naphthalenyl)sulfonyl]-2-thioxo-4-imidazolidinone]
inhibition at 1 µM (aldose reductase [1]; 10^-6): 16% | inhibition at 10 µM (aldose reductase [1]): 46%

SMILES: O=C1CN(S(=O)(=O)c2ccc(Br)c3ccccc23)C(=O)N1 [Example 4, 1-[(4-bromo-1-naphthalenyl)sulfonyl]-2,4-imidazolidinedione]
inhibition at 10 µM (aldose reductase [1]; 10^-5): 92% | inhibition at 1 µM (aldose reductase [1]; 10^-6): 81% | inhibition at 0.1 µM (aldose reductase [1]; 10^-7): 31% | % lowering dulcitol accumulation in vivo, D (aldose reductase [2]; [3]): 27%

SMILES: O=C1CN(S(=O)(=O)c2cccc3cc(Br)ccc23)C(=O)N1 [Example 12, 1-[(6-bromo-1-naphthalenyl)sulfonyl]-2,4-imidazolidinedione]
inhibition at 10 µM (aldose reductase [1]; 10^-5): 89% | inhibition at 1 µM (aldose reductase [1]; 10^-6): 70% | inhibition at 0.1 µM (aldose reductase [1]; 10^-7): 23% | % lowering dulcitol accumulation in vivo, D (aldose reductase [2]; [3]): 0% | % lowering dulcitol accumulation in vivo, L (aldose reductase [2]; lens, 24 mg/kg/day in diet): 0%

SMILES: O=C1CN(S(=O)(=O)c2cccc3c(Br)cccc23)C(=O)N1 [Example 2, 1-[(5-Bromo-1-naphthalenyl)sulfonyl]-2,4-imidazolidinedione]
inhibition at 10 µM (aldose reductase [1]; 10^-5): 93% | inhibition at 1 µM (aldose reductase [1]; 10^-6): 89% | inhibition at 0.1 µM (aldose reductase [1]; 10^-7): 45% | results compared with tolrestat (in words) (aldose reductase [2]; 4.8 and 10.2 mg/kg/day versus tolrestat 4 and 11 mg/kg/day): comparable results | % lowering dulcitol accumulation in vivo, D (aldose reductase [2]; diaphragm, 4.8 mg/kg/day in diet): 58% | % lowering dulcitol accumulation in vivo, D (aldose reductase [2]; diaphragm, 10.2 mg/kg/day in diet): 72% | % lowering dulcitol accumulation in vivo, D (aldose reductase [2]; diaphragm, 20.7 mg/kg/day in diet): 75% | % lowering dulcitol accumulation in vivo, D (aldose reductase [2]; [6]): 81% | % lowering dulcitol accumulation in vivo, D (aldose reductase [2]; diaphragm, 101 mg/kg/day in diet): 87% | % lowering dulcitol accumulation in vivo, L (aldose reductase [2]; lens, 10.2 mg/kg/day in diet): 18% | % lowering dulcitol accumulation in vivo, L (aldose reductase [2]; lens, 20.7 mg/kg/day in diet): 36% | % lowering dulcitol accumulation in vivo, L (aldose reductase [2]; lens, 23 mg/kg/day in diet): 44% | % lowering dulcitol accumulation in vivo, L (aldose reductase [2]; lens, 101 mg/kg/day in diet): 79% | ED50 (aldose reductase [2]; [4]): 2 mg/kg | ED50 (aldose reductase [2]; [5]): 8.1 mg/kg

SMILES: CN(C)c1cccc2c(S(=O)(=O)N3CC(=O)NC3=O)cccc12 [Example 8, 1-[[5-(Dimethylamino)-1-naphthalenyl]sulfonyl]-2,4-imidazolidinedione]
inhibition at 1 µM (aldose reductase [1]; 10^-6): 83% | inhibition at 0.1 µM (aldose reductase [1]): 38% | inhibition at 10 µM (aldose reductase [1]): 96%

SMILES: COc1ccc2c(S(=O)(=O)N3CC(=O)NC3=S)cccc2c1C(F)(F)F [Example 5, 1-[[6-methoxy-5-(trifluoromethyl)-1-naphthalenyl]sulfonyl]-2-thioxo-4-imidazolidinone]
inhibition at 1 µM (aldose reductase [1]; 10^-6): 15% | inhibition at 10 µM (aldose reductase [1]): 40%

SMILES: COc1ccc2c(S(=O)(=O)N3CC(=O)NC3=O)cccc2c1C(F)(F)F [Example 6, 1-[[6-Methoxy-5-(trifluoromethyl)-1-naphthalenyl]sulfonyl]-2,4-imidazolidinedione]
inhibition at 1 µM (aldose reductase [1]; 10^-6): 84% | inhibition at 0.1 µM (aldose reductase [1]; 10^-7): 43% | inhibition at 10 µM (aldose reductase [1]): 86% | % lowering dulcitol accumulation in vivo, D (aldose reductase [2]; diaphragm, 86 mg/kg/day in diet, p < 0.01): 87% | % lowering dulcitol accumulation in vivo, L (aldose reductase [2]; lens, 86 mg/kg/day in diet, p < 0.01): 60%

Further lines, results first:

% lowering dulcitol accumulation in vivo, D (aldose reductase [2]; rat, in vivo, 11 mg/kg/day): 89
SMILES: COc1ccc2c(C(=S)N(C)CC(=O)O)cccc2c1C(F)(F)F [tolrestat, N-[[6-methoxy-5-(trifluoromethyl)-1-naphthalenyl]thioxomethyl]-N-methylglycine, reference compound]

inhibition at 10 µM (aldose reductase [1]; 10^-5): 89% | inhibition at 1 µM (aldose reductase [1]; 10^-6): 77% | inhibition at 0.1 µM (aldose reductase [1]; 10^-7): 24% | % lowering dulcitol accumulation in vivo, L (aldose reductase [2]; lens, 24 mg/kg/day in diet): N.S.
SMILES: O=C1CN(S(=O)(=O)c2ccc3c(Br)cccc3c2)C(=O)N1 [Example 20, 1-[(5-Bromo-2-naphthalenyl)sulfonyl]-2,4-imidazolidinedione]

inhibition at 10 µM (aldose reductase [1]; 10^-5): 58% | inhibition at 1 µM (aldose reductase [1]; 10^-6): 24% | % lowering dulcitol accumulation in vivo, D (aldose reductase [2]; diaphragm, 26 mg/kg/day in diet): 34.0% | % lowering dulcitol accumulation in vivo, L (aldose reductase [2]; lens, 26 mg/kg/day in diet): 0.0%
SMILES: O=C1CN(S(=O)(=O)c2cccc3c(I)cccc23)C(=S)N1 [Example 17, 1-[(5-iodo-1-naphthalenyl)sulfonyl]-2-thioxo-4-imidazolidinone]

inhibition at 0.1 µM (aldose reductase [1]; 10^-7): 59% | % lowering dulcitol accumulation in vivo, D (aldose reductase [2]; [3]): 74.0% | % lowering dulcitol accumulation in vivo, L (aldose reductase [2]; lens, 24 mg/kg/day in diet): 33%
SMILES: O=C1CN(S(=O)(=O)c2cccc3c(I)cccc23)C(=O)N1 [Example 18, 1-[(5-iodo-1-naphthalenyl)sulfonyl]-2,4-imidazolidinedione]

inhibition at 10 µM (aldose reductase [1]; 10^-5): 10% | inhibition at 1 µM (aldose reductase [1]; 10^-6): 9%
SMILES: O=C1CN(S(=O)(=O)c2cccc3cc(Br)ccc23)C(=S)N1 [Example 11, 1-[(6-bromo-1-naphthalenyl)sulfonyl]-2-thioxo-4-imidazolidinone]

inhibition at 10 µM (aldose reductase [1]; 10^-5): 13% | inhibition at 1 µM (aldose reductase [1]; 10^-6): 9%
SMILES: O=C1CN(S(=O)(=O)c2ccc3c(Br)cccc3c2)C(=S)N1 [Example 19, 1-[(5-Bromo-2-naphthalenyl)sulfonyl]-2-thioxo-4-imidazolidinone]

inhibition at 10 µM (aldose reductase [1]; 10^-5): 17%
SMILES: O=C1CN(S(=O)(=O)c2cccc3ccccc23)C(=S)N1 [Example 9, 1-[(1-Naphthalenyl)sulfonyl]-2-thioxo-4-imidazolidinone]

inhibition at 10 µM (aldose reductase [1]; 10^-5): 43% | inhibition at 1 µM (aldose reductase [1]; 10^-6): 14%
SMILES: O=C1CN(S(=O)(=O)c2cccc3c(Cl)cccc23)C(=S)N1 [Example 15, 1-[(5-chloro-1-naphthalenyl)sulfonyl]-2-thioxo-4-imidazolidinone]

inhibition at 10 µM (aldose reductase [1]; 10^-5): 89% | inhibition at 1 µM (aldose reductase [1]; 10^-6): 59% | inhibition at 0.1 µM (aldose reductase [1]; 10^-7): 14% | % lowering dulcitol accumulation in vivo, D (aldose reductase [2]; [6]): 31% | % lowering dulcitol accumulation in vivo, L (aldose reductase [2]; lens, 23 mg/kg/day in diet): 10%
SMILES: O=C1CN(S(=O)(=O)c2cccc3ccccc23)C(=O)N1 [Example 10, 1-[(1-Naphthalenyl)sulfonyl]-2,4-imidazolidinedione]

— patent publication US4743611A, “Naphthalenylsulfonylimidazolidinediones and their thioxo analogs useful as aldose reductase inhibitors” (American Home Products Corp., priority 1987, dated 1988)
